Values joined by “and” are separate entries in the source; they are usually repeats but may differ in a detail not shown here. Identical values can stand only once.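 Grown in 96-well plates, cells were treated for 48 hours with each compound at five concentrations. Insufficient inhibition: endpoint recorded as highest concentration tested. GI50 = concentration required for 50% inhibition of growth. TGI: concentration producing complete growth inhibition.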 Numbered stars: 1 amine (or outer) side, 2 acyl side, 3 side chain; on linkers, the order of the positions; unused ones are H or OH. Bridge positions count the residues as written; N and C are the ends. Square brackets hold non-standard residues; d marks the D form. Peptide text beside a SMILES is read from it. I, II: the chains in the order shown. Actinocin(1to9) = Cc1c2oc3c(C)ccc(C(=O)[*:2])c3nc-2c(C(=O)[*:1])c(N)c1=O; NMeY = CN[CH](Cc1ccc(O)cc1)C(=O)O; Sar = CNCC(=O)O Where only a bound is given, the exact number is not on record here.

Drawing on PubChem BioAssay (NCI), this text covers TGI and GI50 for 14 compounds.

Some test systems named below: OVCAR-5 ovarian; A498 renal; IGROV1 ovarian; SN12C renal; HT29 colon; ACHN renal; COLO 205 colon; OVCAR-3 ovarian; M14 melanoma.
What all share (experiment): inhibition of tumour cell growth, NCI panel, 48 h

Turning to `COC(=O)C1CCc2nnc(-c3ccccc3)n21` (configuration not stated), the TGI in the assay with OVCAR-5 ovarian, in the assay with A498 renal, in the assay with IGROV1 ovarian, with SN12C renal, in the assay on HT29 colon and in the assay with ACHN renal was greater than 100 µM in each case. In addition, the TGI with COLO 205 colon, in the assay on OVCAR-3 ovarian and in the assay with M14 melanoma was greater than 100 µM throughout.
For `COc1ccc2c(c1)CN1CCc3c(cc(OC)c(OC)c3OC)C1C2` (configuration not stated), the TGI in the assay on OVCAR-5 ovarian, with IGROV1 ovarian, with SN12C renal, in the assay on HT29 colon, in the assay on ACHN renal and in the assay with COLO 205 colon was greater than 100 µM throughout. For the same compound, the TGI with OVCAR-3 ovarian and in the assay on M14 melanoma was greater than 100 µM throughout.
Take `CCC[CH2][Sn]1([CH2]CCC)[S]CC[N]1S(=O)(=O)c1ccc(C)cc1`: the GI50 was 2.82 µM in the assay on OVCAR-5 ovarian; 1.7 µM in the assay on IGROV1 ovarian; 2.04 µM with HT29 colon; 1.67 µM in the assay on ACHN renal; 1.63 µM in the assay with COLO 205 colon; 1.59 µM in the assay on OVCAR-3 ovarian. Moreover, the GI50 with M14 melanoma was 1.64 µM. The TGI in the assay on OVCAR-5 ovarian was found to be 6.12 µM; in the assay on IGROV1 ovarian it was 3.27 µM; in the assay on HT29 colon it was 3.73 µM; in the assay with ACHN renal, 3.11 µM; with COLO 205 colon, 3.09 µM; with OVCAR-3 ovarian, 2.93 µM. The TGI with M14 melanoma stood at 3.12 µM.
Take `CNC(=O)CN(CC(=O)O)C(=O)NC`: the TGI with OVCAR-5 ovarian, in the assay with A498 renal, in the assay with IGROV1 ovarian, with HT29 colon, in the assay on ACHN renal and in the assay on COLO 205 colon was greater than 100 µM throughout. The TGI in the assay on OVCAR-3 ovarian and in the assay on M14 melanoma was greater than 100 µM each time.
Turning to `C[C@H]1C=C2C(=O)O[C@H]3CC[C@@H](C1)[C@@]23O`, the TGI in the assay with OVCAR-5 ovarian is 12.7 µM; with A498 renal it was 22.5 µM; with IGROV1 ovarian it was 19 µM; with SN12C renal it was 6.76 µM; in the assay on HT29 colon, 16.9 µM; in the assay on ACHN renal it was 17.2 µM. Also, the TGI came to 12.5 µM in the assay with COLO 205 colon, 16.9 µM in the assay with OVCAR-3 ovarian and 14.7 µM with M14 melanoma.
As to `CC[PH+](CC)CC.[Cl][Au]`, the GI50 with OVCAR-5 ovarian was 15.2 µM; in the assay on IGROV1 ovarian, 2.64 µM; in the assay on SN12C renal, 1.82 µM; in the assay on HT29 colon it was 3.84 µM; in the assay on ACHN renal it was 1.61 µM; in the assay on COLO 205 colon, 1.85 µM. Moreover, the values for the GI50 in the assay on OVCAR-3 ovarian and with M14 melanoma were 1.89 µM and 1.17 µM, respectively. The TGI was found to be 28.5 µM with OVCAR-5 ovarian; 7.15 µM in the assay on IGROV1 ovarian; 3.55 µM in the assay with SN12C renal; 8.96 µM with HT29 colon; 3.32 µM in the assay with ACHN renal; 5.79 µM in the assay on COLO 205 colon. For the same compound, the values for the TGI in the assay on OVCAR-3 ovarian and in the assay with M14 melanoma were 3.42 µM and 2.53 µM, respectively.
Turning to `COc1cc(/C=N/N=C(\N)NO)c([N+](=O)[O-])cc1OC`, the TGI in the assay on OVCAR-5 ovarian was greater than 100 µM; in the assay with A498 renal, greater than 100 µM; in the assay with IGROV1 ovarian, greater than 100 µM; in the assay with SN12C renal, greater than 100 µM; in the assay on HT29 colon, greater than 100 µM; in the assay on ACHN renal, 86.5 µM. The TGI in the assay on COLO 205 colon, in the assay on OVCAR-3 ovarian and in the assay with M14 melanoma was greater than 100 µM throughout.
`CO[C@@]1(c2ccccc2)O[C@H]2OCCC2[C@H]1c1ccc(Cl)cc1` (some centres not stated): the TGI in the assay on OVCAR-5 ovarian was greater than 100 µM; with A498 renal it was 53.3 µM; in the assay on IGROV1 ovarian it was greater than 100 µM; in the assay on SN12C renal it was greater than 100 µM; in the assay with HT29 colon, 50.6 µM; in the assay on ACHN renal, greater than 100 µM. Besides, the TGI in the assay with COLO 205 colon was 42.2 µM; in the assay on OVCAR-3 ovarian, 49.7 µM; in the assay with M14 melanoma it was greater than 100 µM.
As to `CC1=CCCC2C(C=O)(C1)CC(C)C2(CO)CC/C(=C/CO)CO` (configuration not stated), the TGI with A498 renal, with IGROV1 ovarian, with SN12C renal, in the assay on HT29 colon, in the assay on ACHN renal and in the assay with COLO 205 colon was greater than 100 µM throughout. Besides, the TGI in the assay on OVCAR-3 ovarian and in the assay with M14 melanoma was greater than 100 µM in each case.
As for `CCCCN(CCCC)CC(C(C)=O)C(c1ccccc1)c1c(O)c2ccccc2oc1=O` (configuration not stated), the TGI in the assay on OVCAR-5 ovarian, in the assay with IGROV1 ovarian, in the assay with SN12C renal, in the assay with HT29 colon, with ACHN renal and with COLO 205 colon was greater than 100 µM throughout. Further, the TGI in the assay with OVCAR-3 ovarian and in the assay with M14 melanoma was greater than 100 µM each time.
Turning to `CC(=O)NN1C(=O)C(Cc2ccccc2)c2ccccc21` (configuration not stated), the TGI in the assay on OVCAR-5 ovarian, in the assay with A498 renal, in the assay on IGROV1 ovarian, in the assay on SN12C renal, with HT29 colon and in the assay on ACHN renal was greater than 100 µM each time. The TGI in the assay with COLO 205 colon, with OVCAR-3 ovarian and with M14 melanoma was greater than 100 µM each time.
With `COc1ccc(CC2C(=O)OC(C)C(NC(=O)c3c4nc5c(C(=O)NC6C(=O)NC(C(C)C)C(=O)N7CCCC7C(=O)N(C)CC(=O)N(C)C(Cc7ccc(OC)cc7)C(=O)OC6C)ccc(C)c5oc-4c(C)c(=O)c3N)C(=O)NC(C(C)C)C(=O)N3CCCC3C(=O)N(C)CC(=O)N2C)cc1` (configuration not stated) (I: TVP[Sar][NMeY](Me) / II: TVP[Sar][NMeY](Me); ester I:1-I:C, II:1-II:C; linker I:N-II:N via Actinocin(1to9); configuration not given here), the GI50 with OVCAR-5 ovarian is < 0.01 µM and 0.0841 µM; in the assay on IGROV1 ovarian, < 0.01 µM and 0.00327 µM; in the assay on HT29 colon, < 0.01 µM and 0.00275 µM; in the assay on COLO 205 colon it was 0.00498 µM; with M14 melanoma, < 0.01 µM and 0.0665 µM. Also, the TGI was greater than 0.651 µM in the assay on OVCAR-5 ovarian, greater than 1 µM in the assay with SN12C renal, greater than 0.591 µM with ACHN renal and 0.113 µM with COLO 205 colon.
As to `COC(=O)N/N=C(\C)CC(=O)Nc1ccc(Cl)cc1`, the TGI in the assay on OVCAR-5 ovarian, with A498 renal, with IGROV1 ovarian, in the assay on HT29 colon, in the assay on COLO 205 colon and in the assay on OVCAR-3 ovarian was greater than 100 µM each time. This compound also showed a TGI in the assay with M14 melanoma greater than 100 µM.
On to `O=C1NC2C(O)CCCCC2C12CCCCC2` (configuration not stated), for which the TGI in the assay on OVCAR-5 ovarian, with A498 renal, with IGROV1 ovarian, with SN12C renal, with HT29 colon and in the assay on ACHN renal was greater than 100 µM each time. The TGI in the assay on COLO 205 colon, in the assay with OVCAR-3 ovarian and with M14 melanoma was greater than 100 µM in each case.
